“And” between values parts separate entries of the source, which are not always exact repeats. Equal entries are not always repeated. Toxic doses and inconclusive results are not listed.

The test concerns P388 leukemia ip, CD2F1 mice, survival T/C. The test can be described thus: NCI In Vivo Anticancer Drug Screen. Data for tumor model P388 Leukemia (intraperitoneal) in CD2F1 (CDF1) mice. Conditions: higher = longer survival. The method, boiled down:
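Mice carrying the transplanted tumor received test compound or vehicle. Survival was recorded in each group, and the value is the treated-group measurement divided by that of the vehicle-treated control group.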

Where [1] appears, read: endpoint: median survival time, dose: 50.0 mg/kg/injection, schedule: Q01DX005 (ip), vehicle: Klucel (hydroxypropylcellulose) (HPC).
Setting [2] is: endpoint: median survival time, dose: 100.0 mg/kg/injection, schedule: Q01DX005 (ip), vehicle: Klucel (hydroxypropylcellulose) (HPC).
The mark [3] stands for this setting: endpoint: median survival time, dose: 200.0 mg/kg/injection, schedule: Q01DX005 (ip), vehicle: Klucel (hydroxypropylcellulose) (HPC).
Setting [4] is: endpoint: median survival time, dose: 50.0 mg/kg/injection, schedule: Q01DX005 (ip), vehicle: saline with Tween-80.
[5] abbreviates: endpoint: median survival time, dose: 100.0 mg/kg/injection, schedule: Q01DX005 (ip), vehicle: saline with Tween-80.
Where [6] appears, read: endpoint: median survival time, dose: 200.0 mg/kg/injection, schedule: Q01DX005 (ip), vehicle: saline with Tween-80.
[7] abbreviates: endpoint: median survival time, dose: 50.0 mg/kg/injection, schedule: Q01DX009 (ip), vehicle: Klucel (hydroxypropylcellulose) (HPC).
The mark [8] stands for this setting: endpoint: median survival time, dose: 100.0 mg/kg/injection, schedule: Q01DX009 (ip), vehicle: Klucel (hydroxypropylcellulose) (HPC).
Where [9] appears, read: endpoint: median survival time, dose: 200.0 mg/kg/injection, schedule: Q01DX009 (ip), vehicle: Klucel (hydroxypropylcellulose) (HPC).
[10] abbreviates: endpoint: median survival time, dose: 100.0 mg/kg/injection, schedule: Q01DX009 (ip), vehicle: saline with Tween-80.
Setting [11] is: endpoint: median survival time, dose: 100.0 mg/kg/injection, schedule: Q04DX003 (ip), vehicle: saline with Tween-80.
The mark [12] stands for this setting: endpoint: median survival time, dose: 100.0 mg/kg/injection, schedule: Q01DX009 (ip), vehicle: saline.
[13] abbreviates: endpoint: median survival time, dose: 200.0 mg/kg/injection, schedule: Q01DX009 (ip), vehicle: saline.

For `CCOC(=O)C1=C(C)/C(=C/c2[n-]c(C)c(C(=O)OCC)c2C)N=C1C.CCOC(=O)C1=C(C)/C(=C/c2[n-]c(C)c(C(=O)OCC)c2C)N=C1C.[Co+2]`, the T/C reads like this: (endpoint: mean survival time, dose: 12.5 mg/kg/injection, schedule: Q01DX001 (ip), vehicle: saline with Tween-80) 95 % of control; (endpoint: mean survival time, dose: 25.0 mg/kg/injection, schedule: Q01DX001 (ip), vehicle: saline with Tween-80) 92 % of control; (endpoint: mean survival time, dose: 50.0 mg/kg/injection, schedule: Q01DX001 (ip), vehicle: saline with Tween-80) 90 % of control.

As for `COc1ccc(C2=C(c3ccccc3)C(C)(C)Oc3ccc4ccccc4c32)cc1`, the T/C by setting is: under setting [1], 95 % of control; under setting [2], 95 % of control; under setting [3], 104 % of control.

As for `C=C1CC2(OC1=O)C(C1COC(C)(C)O1)OC1OC(C)(C)OC12` (configuration not stated), the T/C runs as follows: (endpoint: median survival time, dose: 25.0 mg/kg/injection, schedule: Q04DX002 (ip), vehicle: saline) 96 % of control; under setting [4], 105 % of control; (endpoint: median survival time, dose: 50.0 mg/kg/injection, schedule: Q04DX002 (ip), vehicle: saline) 99 % of control; under setting [5], 110 % of control; (endpoint: median survival time, dose: 100.0 mg/kg/injection, schedule: Q04DX002 (ip), vehicle: saline) 104 % of control; under setting [6], 105 % of control.

Consider `Cc1s/c(=N/N=C2\C(=O)C=Cc3ccccc32)n(O)c1C`, for which the T/C was 99 % of control under setting [7], 108 % of control under setting [8] and 111 % of control under setting [9].

`CCCCCC1CCCC2NC(=O)CCC12` (configuration not stated): the T/C runs as follows: (endpoint: median survival time, dose: 100.0 mg/kg/injection, schedule: Q04DX002 (ip), vehicle: saline with Tween-80) 104 % of control; (endpoint: median survival time, dose: 200.0 mg/kg/injection, schedule: Q04DX002 (ip), vehicle: saline with Tween-80) 97 % of control; (endpoint: median survival time, dose: 400.0 mg/kg/injection, schedule: Q04DX002 (ip), vehicle: saline with Tween-80) 89 % of control.

Take `CC(O)C([NH-])C(=O)O.CC([NH-])C(=O)O.[Cu+2]` (configuration not stated): the T/C (endpoint: median survival time, dose: 6.25 mg/kg/injection, schedule: Q01DX009 (ip), vehicle: saline) was 94 % of control; the T/C (endpoint: median survival time, dose: 12.5 mg/kg/injection, schedule: Q01DX009 (ip), vehicle: saline) was 97 % of control; the T/C (endpoint: median survival time, dose: 25.0 mg/kg/injection, schedule: Q01DX009 (ip), vehicle: saline) is 94 % of control.

For the compound `O=C(O)c1c(C(=O)O)c(C(=O)O)c(C(=O)O)c(C(=O)O)c1C(=O)O`, the T/C is, setting by setting: (endpoint: median survival time, dose: 25.0 mg/kg/injection, schedule: Q01DX009 (ip), vehicle: water) 111 % of control; (endpoint: median survival time, dose: 50.0 mg/kg/injection, schedule: Q01DX009 (ip), vehicle: water) 106 % of control; (endpoint: median survival time, dose: 100.0 mg/kg/injection, schedule: Q01DX009 (ip), vehicle: water) 109 % of control; (endpoint: median survival time, dose: 200.0 mg/kg/injection, schedule: Q01DX009 (ip), vehicle: water) 101 % of control.

`Cc1ccc(C)c(N=Nc2ccc(O)cc2)c1`: the T/C by setting is: (endpoint: median survival time, dose: 25.0 mg/kg/injection, schedule: Q01DX009 (ip), vehicle: saline with Tween-80) 100 % of control; (endpoint: median survival time, dose: 50.0 mg/kg/injection, schedule: Q01DX009 (ip), vehicle: saline with Tween-80) 109 % of control; (endpoint: median survival time, dose: 50.0 mg/kg/injection, schedule: Q04DX003 (ip), vehicle: saline with Tween-80) 104 % of control; under setting [10], 100 % of control; under setting [11], 100 % of control.

For `O=C1CCC(N2C(=O)C3CCCCC3C2=O)C(=O)O1` (configuration not stated), the T/C runs as follows: under setting [7], 94 % of control; under setting [8], 108 % of control; under setting [9], 99 % of control.

In the case of `CCn1c2ccccc2c2cc(NC(=O)N(CCCl)N=O)ccc21`, the T/C is 119 % of control (endpoint: median survival time, dose: 6.25 mg/kg/injection, schedule: Q01DX009 (ip), vehicle: saline with Tween-80); 122 % of control (endpoint: median survival time, dose: 12.5 mg/kg/injection, schedule: Q01DX009 (ip), vehicle: saline with Tween-80); 189 % of control under setting [10].

Turning to `O=C1NC(=O)C2(Cc3cccc4cccc2c34)N1` (configuration not stated), the T/C was 103 % of control under setting [4], 100 % of control under setting [5] and 99 % of control under setting [6].

Consider `N#Cc1nc(CC(=O)c2ccc(Cl)c(Cl)c2)c(CC(=O)c2ccc(Cl)c(Cl)c2)nc1C#N`, for which the T/C (endpoint: median survival time, dose: 60.0 mg/kg/injection, schedule: Q01DX005 (ip), vehicle: saline with Tween-80) was 114 % of control; the T/C (endpoint: median survival time, dose: 120.0 mg/kg/injection, schedule: Q01DX005 (ip), vehicle: saline with Tween-80) was 120 % of control; the T/C (endpoint: median survival time, dose: 240.0 mg/kg/injection, schedule: Q01DX005 (ip), vehicle: saline with Tween-80) was 86 % of control.

Regarding `CCOc1ccc(N=Nc2c(O)n(-c3ccccc3Cl)c(=S)n(-c3ccc(OC)cc3)c2=O)cc1`, the T/C (endpoint: median survival time, dose: 50.0 mg/kg/injection, schedule: Q01DX001 (ip), vehicle: Klucel (hydroxypropylcellulose) (HPC)) is 97 % of control; the T/C (endpoint: median survival time, dose: 100.0 mg/kg/injection, schedule: Q01DX001 (ip), vehicle: Klucel (hydroxypropylcellulose) (HPC)) was 102 % of control; the T/C (endpoint: median survival time, dose: 200.0 mg/kg/injection, schedule: Q01DX001 (ip), vehicle: Klucel (hydroxypropylcellulose) (HPC)) was 97 % of control.

Consider `C#CCOCC(O)CCl` (configuration not stated), for which the T/C reads like this: under setting [12], 90 % of control; under setting [13], 105 % of control.

Consider `CC(C)=NNC1=NC(CC(C)C)P(=O)(NCCCCNP2(=O)SC(NN=C(C)C)=NC2CC(C)C)S1` (configuration not stated), for which the T/C by setting is: under setting [4], 103 % of control; under setting [5], 103 % of control; under setting [6], 101 % of control.

As for `COc1ccc(C2=C(Cl)C(=O)N(c3ccccc3OC)C(=O)C2(Cl)Cl)cc1`, the T/C was 107 % of control (endpoint: median survival time, dose: 100.0 mg/kg/injection, schedule: Q04DX003 (ip), vehicle: Klucel (hydroxypropylcellulose) (HPC)); 103 % of control (endpoint: median survival time, dose: 200.0 mg/kg/injection, schedule: Q04DX003 (ip), vehicle: Klucel (hydroxypropylcellulose) (HPC)); 98 % of control (endpoint: median survival time, dose: 400.0 mg/kg/injection, schedule: Q04DX003 (ip), vehicle: Klucel (hydroxypropylcellulose) (HPC)).

Consider `O=c1cc(C(F)(F)F)c2cc3c4c(c2o1)CCCN4CCC3`, for which the T/C runs as follows: under setting [1], 106 % of control; under setting [2], 100 % of control; under setting [3], 99 % of control.

As to `CC1(C)CC(OP(=S)(OC2CC(C)(C)N(O)C(C)(C)C2)N2CC2)CC(C)(C)N1O`, the T/C is, setting by setting: (endpoint: median survival time, dose: 50.0 mg/kg/injection, schedule: Q01DX009 (ip), vehicle: saline + alcohol) 124 % of control; (endpoint: median survival time, dose: 200.0 mg/kg/injection, schedule: Q01DX009 (ip), vehicle: saline + alcohol) 168 % of control.

In the case of `OCCN(CCO)c1ncnc2nc[nH]c12`, the T/C was 88 % of control under setting [4], 96 % of control under setting [5] and 98 % of control under setting [6].

Regarding `[N-]=[N+]=NC1(N=[N+]=[N-])C(=O)c2cccc3c2N(CCC3)C1=O` (configuration not stated), the T/C was 92 % of control under setting [1], 114 % of control under setting [2] and 88 % of control under setting [3].

As for `O=c1oc2c(-c3c(O)c(=O)oc4ccccc34)cc(O)cc2s1`, the T/C was 96 % of control under setting [1], 103 % of control under setting [2] and 104 % of control under setting [3].

For `O=C1CCCC(C(Sc2ccccc2)(Sc2ccccc2)Sc2ccccc2)C1` (configuration not stated), the T/C under setting [7] is 99 % of control, the T/C under setting [8] is 95 % of control and the T/C under setting [9] is 93 % of control.

Take `O=c1cc(CCl)occ1O`: the T/C (endpoint: median survival time, dose: 50.0 mg/kg/injection, schedule: Q01DX009 (ip), vehicle: saline) is 100 % of control and 113 % of control; the T/C under setting [12] was 101 % of control and 103 % of control; the T/C under setting [13] was 100 % of control and 113 % of control; the T/C (endpoint: median survival time, dose: 400.0 mg/kg/injection, schedule: Q01DX009 (ip), vehicle: saline) was 110 % of control and 95 % of control.

On to `CC(=O)C1=C(c2ccc([N+](=O)[O-])cc2)NC(=O)NC1c1ccco1` (configuration not stated), for which the T/C was 95 % of control under setting [11]; 100 % of control (endpoint: median survival time, dose: 200.0 mg/kg/injection, schedule: Q04DX003 (ip), vehicle: saline with Tween-80); 100 % of control (endpoint: median survival time, dose: 400.0 mg/kg/injection, schedule: Q04DX003 (ip), vehicle: saline with Tween-80).

As to `Cc1cc(C)c(C#N)c(SC(C(=O)Nc2cc(C(F)(F)F)ccc2Cl)c2ccccc2)n1` (configuration not stated), the T/C by setting is: (endpoint: median survival time, dose: 12.5 mg/kg/injection, schedule: Q01DX005 (ip), vehicle: Klucel (hydroxypropylcellulose) (HPC)) 90 % of control; (endpoint: median survival time, dose: 25.0 mg/kg/injection, schedule: Q01DX005 (ip), vehicle: Klucel (hydroxypropylcellulose) (HPC)) 89 % of control; under setting [1], 89 % of control and 90 % of control; under setting [2], 105 % of control; under setting [3], 105 % of control.
